Data from PMC4961458 (eLife, 2016).
No end group written: not given here.

How the values were obtained:
[1] = target: T1, GR (Homo sapiens, UniProt P04150); assay: GR transcriptional reporter assay, agonist mode (CV1 cells); assay type: cell-based; details: CV-1; % of maximal dexamethasone-stimulated activity
T1 sequence (P04150 1-777): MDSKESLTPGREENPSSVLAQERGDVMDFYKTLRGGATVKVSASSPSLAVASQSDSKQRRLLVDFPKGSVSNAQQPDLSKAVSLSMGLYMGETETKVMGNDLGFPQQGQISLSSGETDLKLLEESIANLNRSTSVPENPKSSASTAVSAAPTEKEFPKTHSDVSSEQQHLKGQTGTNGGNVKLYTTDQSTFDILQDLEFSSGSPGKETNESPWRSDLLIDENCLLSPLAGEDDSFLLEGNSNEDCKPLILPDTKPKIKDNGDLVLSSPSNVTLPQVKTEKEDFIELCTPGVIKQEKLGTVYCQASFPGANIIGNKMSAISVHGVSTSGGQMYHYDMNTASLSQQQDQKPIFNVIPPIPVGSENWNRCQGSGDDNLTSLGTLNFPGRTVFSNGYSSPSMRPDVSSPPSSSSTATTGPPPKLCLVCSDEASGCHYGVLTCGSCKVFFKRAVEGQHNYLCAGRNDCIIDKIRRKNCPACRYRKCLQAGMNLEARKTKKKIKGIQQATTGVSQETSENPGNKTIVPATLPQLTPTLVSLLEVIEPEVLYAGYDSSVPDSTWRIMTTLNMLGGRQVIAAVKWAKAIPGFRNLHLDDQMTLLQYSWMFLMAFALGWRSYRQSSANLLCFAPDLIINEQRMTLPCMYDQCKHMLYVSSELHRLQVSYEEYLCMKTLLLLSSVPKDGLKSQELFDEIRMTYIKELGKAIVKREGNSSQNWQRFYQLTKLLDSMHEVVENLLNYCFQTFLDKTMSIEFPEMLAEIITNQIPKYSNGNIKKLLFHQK
Experimental: CV1 cells were maintained in MEM supplemented with 10% FBS. Transcriptional assays were performed by seeding 12 mL of cells at a density of 250,000 cells/mL into a T-75 cell culture flask in MEM supplemented with 5% charcoal-stripped serum and allowed to attach overnight. Cells were transiently transfected using FuGENE 6 (Roche Applied Science). […] Transfected cells were incubated overnight then split into four 96-well tissue culture plates and incubated for 4 hr followed by compound addition. […] The final agonist concentration used in the antagonist assays was 10 nM.

[2] = target: T2, PR-A (Homo sapiens, UniProt P06401); assay: PR-A transcriptional reporter assay, agonist mode (HEPG2 cells); assay type: cell-based; parameters: subcloning full-length PRa into pCMX; expressed in transfected cells; host or cells: HEPG2; details: % of maximal R5020-stimulated activity
T2 sequence (P06401 1-769 isoform P06401-2): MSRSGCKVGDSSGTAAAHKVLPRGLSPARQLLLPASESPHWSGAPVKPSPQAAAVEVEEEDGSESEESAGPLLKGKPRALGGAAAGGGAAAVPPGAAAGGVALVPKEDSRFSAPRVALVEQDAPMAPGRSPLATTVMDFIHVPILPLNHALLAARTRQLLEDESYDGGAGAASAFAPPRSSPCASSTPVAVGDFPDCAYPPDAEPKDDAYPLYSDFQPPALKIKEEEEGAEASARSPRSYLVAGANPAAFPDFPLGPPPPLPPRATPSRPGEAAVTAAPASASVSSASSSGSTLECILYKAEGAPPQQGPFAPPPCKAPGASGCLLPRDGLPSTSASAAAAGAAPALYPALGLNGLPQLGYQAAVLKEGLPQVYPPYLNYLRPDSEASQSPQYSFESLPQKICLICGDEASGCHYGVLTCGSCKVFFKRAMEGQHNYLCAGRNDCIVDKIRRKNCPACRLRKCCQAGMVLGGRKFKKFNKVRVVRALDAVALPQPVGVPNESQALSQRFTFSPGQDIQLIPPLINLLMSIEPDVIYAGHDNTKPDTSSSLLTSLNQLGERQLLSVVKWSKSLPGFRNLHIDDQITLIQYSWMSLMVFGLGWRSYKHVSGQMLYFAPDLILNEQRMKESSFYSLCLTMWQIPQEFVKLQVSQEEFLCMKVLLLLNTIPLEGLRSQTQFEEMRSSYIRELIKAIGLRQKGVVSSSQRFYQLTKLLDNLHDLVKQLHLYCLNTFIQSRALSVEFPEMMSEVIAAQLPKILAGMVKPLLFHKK
Experimental: (§1) Transcriptional assays were performed by seeding 100 μL of cells at a density of 250,000 cells/mL into 96-well cell culture plates in RPMI 1640 supplemented with 5% charcoal-stripped serum and allowed to attach overnight. […] Triplicate transfections were performed using 418 ng reporter vector (2X PRE-Luciferase for PR-A and PR-B, MMTV-Luciferase for MR), 50 ng CMVpRL (normalization vector), 10 ng NHR expression vector (CMX-PR-A, pCDNA-PR-B or 6R-MR), and 0.7 μL lipofectin. […] The final agonist concentration used in the antagonist assays was 1 nM. Following 24 hr incubation, the medium was removed and the cells were lysed in 40 μL of lysis buffer (25 mM Tris Phosphate, 2 mM CDTA, 10% Glycerol, 0.5% Triton X-100, 2 mM DTT). Firefly luciferase activity was measured immediately following the addition of 40 μL luciferase buffer (20 mM tricine, 0.1 mM EDTA, 1.07 mM (MgCO3)4 Mg(OH)2· 5H2O, 2.67 mM MgSO4, 33.3 mM DTT, 270 μM Coenzyme A, 470 μM luciferin, 530 μM ATP).

[3] = target: T3, PR-B (Homo sapiens, UniProt P06401); assay: PR-B transcriptional reporter assay, agonist mode (HEPG2 cells); assay type: cell-based; details: % of maximal R5020-stimulated activity
T3 construct: cloning full-length human PRb into pCDNA; expressed in transfected cells; host or cells: HEPG2
T3 sequence (P06401 1-933): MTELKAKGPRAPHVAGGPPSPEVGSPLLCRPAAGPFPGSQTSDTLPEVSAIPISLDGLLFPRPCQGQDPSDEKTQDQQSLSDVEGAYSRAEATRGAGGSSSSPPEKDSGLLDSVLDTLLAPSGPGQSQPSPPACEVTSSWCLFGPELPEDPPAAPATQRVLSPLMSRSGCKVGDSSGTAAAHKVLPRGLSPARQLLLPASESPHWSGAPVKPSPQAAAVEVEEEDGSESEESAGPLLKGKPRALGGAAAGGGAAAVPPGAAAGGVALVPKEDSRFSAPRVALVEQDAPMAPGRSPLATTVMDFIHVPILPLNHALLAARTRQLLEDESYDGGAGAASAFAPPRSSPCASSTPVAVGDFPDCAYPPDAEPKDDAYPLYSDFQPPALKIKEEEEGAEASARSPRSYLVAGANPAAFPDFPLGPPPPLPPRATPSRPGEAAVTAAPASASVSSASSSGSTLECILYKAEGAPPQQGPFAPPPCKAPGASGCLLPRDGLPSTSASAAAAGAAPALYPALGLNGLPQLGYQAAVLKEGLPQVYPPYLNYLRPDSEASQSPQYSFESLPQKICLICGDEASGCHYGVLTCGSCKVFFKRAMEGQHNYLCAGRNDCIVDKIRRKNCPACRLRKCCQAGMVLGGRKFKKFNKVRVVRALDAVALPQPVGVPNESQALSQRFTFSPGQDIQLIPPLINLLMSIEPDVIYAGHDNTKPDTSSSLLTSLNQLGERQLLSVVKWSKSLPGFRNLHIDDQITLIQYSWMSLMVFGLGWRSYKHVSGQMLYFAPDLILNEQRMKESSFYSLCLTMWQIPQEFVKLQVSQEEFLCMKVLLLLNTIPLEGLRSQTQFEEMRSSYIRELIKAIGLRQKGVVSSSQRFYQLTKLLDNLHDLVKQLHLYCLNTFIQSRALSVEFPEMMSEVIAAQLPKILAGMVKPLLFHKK

[4] = target: T4, MR (Homo sapiens, UniProt P08235); assay: MR transcriptional reporter assay, agonist mode (HEPG2 cells); assay type: cell-based; details: % of maximal aldosterone-stimulated activity
T4 construct: expressed in transfected cells; host or cells: HEPG2
T4 sequence (P08235 1-984): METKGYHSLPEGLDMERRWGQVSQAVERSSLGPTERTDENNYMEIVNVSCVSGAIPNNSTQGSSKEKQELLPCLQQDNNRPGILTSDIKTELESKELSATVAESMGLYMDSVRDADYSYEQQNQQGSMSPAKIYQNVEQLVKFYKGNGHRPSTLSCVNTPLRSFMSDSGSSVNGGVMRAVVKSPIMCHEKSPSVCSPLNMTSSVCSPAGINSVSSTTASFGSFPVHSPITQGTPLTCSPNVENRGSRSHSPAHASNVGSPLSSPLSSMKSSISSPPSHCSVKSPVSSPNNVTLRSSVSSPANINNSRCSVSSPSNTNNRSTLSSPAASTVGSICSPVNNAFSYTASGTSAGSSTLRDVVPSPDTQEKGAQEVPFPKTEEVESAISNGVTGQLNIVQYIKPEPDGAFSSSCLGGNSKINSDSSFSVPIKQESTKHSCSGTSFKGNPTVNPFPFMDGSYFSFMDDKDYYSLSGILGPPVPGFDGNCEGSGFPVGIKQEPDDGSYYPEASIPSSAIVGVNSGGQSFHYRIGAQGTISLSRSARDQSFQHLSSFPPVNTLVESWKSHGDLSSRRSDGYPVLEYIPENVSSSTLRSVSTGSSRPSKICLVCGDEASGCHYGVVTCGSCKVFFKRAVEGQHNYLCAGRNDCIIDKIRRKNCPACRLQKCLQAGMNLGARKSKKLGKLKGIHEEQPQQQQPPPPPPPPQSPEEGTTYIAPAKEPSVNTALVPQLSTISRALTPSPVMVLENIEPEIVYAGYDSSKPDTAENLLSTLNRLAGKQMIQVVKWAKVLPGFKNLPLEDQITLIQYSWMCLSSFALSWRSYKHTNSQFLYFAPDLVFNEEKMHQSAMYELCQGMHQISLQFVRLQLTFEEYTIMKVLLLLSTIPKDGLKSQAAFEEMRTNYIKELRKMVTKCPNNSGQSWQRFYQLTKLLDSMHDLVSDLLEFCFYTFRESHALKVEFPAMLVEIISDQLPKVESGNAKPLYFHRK
Experimental: as §1

[5] = target: T5, human estrogen receptor alpha, GST-tagged ESR1 ligand binding domain, residues S282-V595, wild-type sequence (human, UniProt P03372 282-595); assay: FRET or BRET; cell-free TR-FRET PGC1α recruitment assay; GST-ERα LBD (3x solution 22 nM) detected with Tb-anti-GST antibody (3x mix 15 nM), Fluorescein-PGC1α peptide (3x mix 750 nM), estradiol (3x mix 12 nM; agonist at EC80), TR-FRET Co-regulator Buffer E with 7.5 mM DTT, 2 hr at room temperature; GDC-0810 titrated as small-molecule competitor; details: both partners purified
T5 construct: Detected in the TR-FRET assay through a LanthaScreen Tb-anti-GST antibody; also called ER.WT; ERα LBD
T5 sequence (looked up): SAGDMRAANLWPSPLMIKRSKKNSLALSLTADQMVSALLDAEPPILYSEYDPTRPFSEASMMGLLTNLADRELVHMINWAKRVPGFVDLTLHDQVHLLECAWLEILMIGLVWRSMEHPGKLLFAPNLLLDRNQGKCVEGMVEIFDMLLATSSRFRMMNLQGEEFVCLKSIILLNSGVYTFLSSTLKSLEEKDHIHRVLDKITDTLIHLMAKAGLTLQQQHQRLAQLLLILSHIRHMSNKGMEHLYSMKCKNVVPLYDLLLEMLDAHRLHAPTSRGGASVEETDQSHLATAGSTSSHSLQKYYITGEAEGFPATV

## CC#C[C@]1(O)CC[C@H]2[C@@H]3CCC4=CC(=O)CCC4=C3[C@@H](c3ccc(N(C)C)cc3)C[C@@]21C [RU-486]
[1]
  Emax: 8.06 ± 0.66%
[2]
  Emax: 13.3 ± 10.2%
[3]
  Emax: 3.25 ± 1.17%

## CC(=O)S[C@@H]1CC2=CC(=O)CC[C@]2(C)[C@H]2CC[C@@]3(C)[C@@H](CC[C@@]34CCC(=O)O4)[C@H]12 [Spironolactone]
[4]
  Emax: 6.24 ± 0.37%

B1: Fluorescein-PGC1α peptide (peptide)
peptide: EAEEPSLLKKLLLAPANTQ
modifications: also: fluorescein (position not given here)
notes: source: bought: Life Technologies PV4421
[5]
  binding result: binds
